Experiments:
[1] = biological target: T1, HCV genotype 1b NS5B protein containing the S282T mutation (Hepatitis C virus genotype 1b, UniProt Q9WMX2, S2701T); assay: HCV polymerase enzyme assay, S282T mutant; assay type: biochemical; conditions: nucleoside triphosphate; S282T genotype 1b NS5B; 2 h at 30° C.
T1 construct: HCV genotype 1b NS5B protein were used to generate recombinant HCV polymerases (with a deletion of the 21 carboxy terminal amino acids); made in house
Description: (§1) Test compounds in the form of nucleoside triphosphates were examined for inhibitory activity against purified HCV polymerase in a standard assay. Bacterial expression constructs encoding the approximately 65 kDa HCV genotype 1b NS5B protein were used to generate recombinant HCV polymerases (with a deletion of the 21 carboxy terminal amino acids). Both the wild-type genotype 1b protein and protein containing the S282T mutation were expressed and purified for use in the enzymatic activity assay.
(§2) The enzymatic activity assay measured the inhibitory effect of increasing concentrations of test compound on the incorporation of α-[^33P]-labeled nucleotide into trichloroacetic acid-precipitable material. Recombinant polymerase and synthetic RNA template were combined in reaction buffer containing ribonucleoside triphosphates, α-[^33P]-labeled nucleotide and eight concentrations of test compound in three-fold dilutions. […]
(§3) Reactions were terminated by the addition of ice-cold trichloroacetic acid and sodium pyrophosphate to promote precipitation of newly-synthesized ribonucleic acid. Precipitable material from the reactions was collected by filtration onto 96-well filter plates, washed extensively with water, and quantified by liquid scintillation.
(§4) The inhibitory activity of test compounds was determined by fitting results to dose-response curves using XLfit software.

[2] = biological target: T2, wild-type HCV genotype 1b NS5B protein (recombinant HCV polymerase) (Hepatitis C virus genotype 1b, UniProt Q9WMX2); assay: HCV polymerase enzyme assay, wild-type; assay type: biochemical
T2 construct: HCV genotype 1b NS5B protein were used to generate recombinant HCV polymerases (with a deletion of the 21 carboxy terminal amino acids); made in house
Description: as §1, §2, §3, §4

[3] = test system: HCV genotype 1b replicon in Huh-7-derived cell line (Zluc); assay: HCV replicon assay (luciferase reporter); assay type: cell-based; conditions: Hepatitis C virus; Zluc cells, 72 hours of incubation
Protocol: Huh-7-derived cell line (Zluc) that harbors an HCV genotype 1b replicon and a luciferase reporter gene was grown in Dulbecco's Modified Eagle Medium (DMEM) supplemented with 10% fetal bovine serum, 2 mM GlutaMAX, 1% MEM nonessential amino acids, 100 IU/mL penicillin, 100 μg/mL streptomycin, and 0.5 mg/mL Geneticin® (G418). For dose response testing the cells were seeded in 96-well plates at 7.5×10^3 cells per well in a volume of 50 μL, and incubated at 37° C./5% CO2. Drug solutions were made up freshly in Huh-7 media as 2× stocks. Ten additional 5-fold dilutions were prepared from these stocks in DMEM without G418. At least three hours after Zluc cells were seeded, drug treatment was initiated by adding 50 μL of drug dilutions to the plates in duplicate. Final concentrations of drug ranged from 100 μM to 0.0000512 μM. Cells were then incubated at 37° C./5% CO2. Alternatively, compounds were tested at two concentrations (1 μM and 10 μM). […] For this, media was removed from the plates via gentle tapping. […] The plates were shaken gently for 3 min at room temperature and luminescence was measured on a Victor^3 V 1420 multilabel counter (Perkin Elmer) with a 1 second read time using a 700 nm cut-off filter. The EC50 values were calculated from dose response curves from the resulting best-fit equations determined by Microsoft Excel and XLfit 4.1 software. […]

[4] = Cytotoxicity evaluation, CellTiter-Blue Cell Viability Assay; assay type: cell-based; conditions: human, Zluc cells

SMILES	IC50 [1] [µM]	IC50 [2] [µM]	EC50 [3] [µM]	CC50 at 72 h [4] [µM]
Nc1ccn([C@@H]2O[C@](F)(COP(=O)(O)OP(=O)(O)OP(=O)(O)O)[C@@H](O)[C@H]2F)c(=O)n1 [Compound 205]	< 0.25	< 0.25	–	–
O=c1ccn([C@@H]2O[C@](F)(CO)[C@@H](O)[C@H]2F)c(=O)[nH]1 [Compound 101, 1-((2R,3R,4S,5S)-3,5-difluoro-4-hydroxy-5-(hydroxymethyl)tetrahydrofuran-2-yl)pyrimidine-2,4(1H,3H)-dione]	–	–	> 10	> 50
O=c1ccn([C@@H]2O[C@](F)(COP(=O)(O)OP(=O)(O)OP(=O)(O)O)[C@@H](O)[C@H]2F)c(=O)[nH]1 [Compound 201]	< 0.25	0.25 to 1	–	–
Nc1ccn([C@@H]2O[C@](F)(CO)[C@@H](O)[C@H]2F)c(=O)n1 [Compound 105]	–	–	0.25 to 1	> 50

— patent publication US9187515B2, “2′,4′-fluoro nucleosides for the treatment of HCV” (Idenix Pharmaceuticals, Inc., priority 2013, dated 2015)
